In US8235110B2, “Preconditioning an oilfield reservoir” (Gushor Inc., priority 2006, dated 2012):
Converted amounts (≈) assume the structure as drawn. Blank lines part the entries; values can stand above or below the molecule they belong to.

How the values were obtained:
[1] = Heating agent in water solution in sealed pressure vessels at SAGD conditions (gas generation by decomposition); assay type: physicochemical
Experimental: For illustrative purposes, an experiment conducted to simulate the impact of a recovery process on selected preconditioning agents under reservoir conditions shall be described. […] In one such experiment, the preconditioning agent was citric acid which was dissolved in water to create the water solution.

[2] = cited from earlier work
[3] = 5 grams agent, 205° C., approx. 73 hours
[4] = 5.0 g agent and 50 milliliters water, three days at 205° C., SAGD conditions

SMILES: O=C(O)CC(O)(CC(=O)O)C(=O)O [Citric Acid, citric acid]
methane in headspace gas [1, 3]: approximately 1500 ppm | propane in headspace gas [1, 3]: ~300 ppm | CO2 yielded in headspace ([1]; approximately 5 grams agent (50 milliliters of 10% solution), 205° C., approx. 73 hours, approx. 990 psi): approximately 1.16 liters | carbon dioxide yield scaled ([1]; from 1 cubic meter of 10% solution): 23,200 liters

SMILES: CCCC(C)=O [MPK, methyl propyl ketone]
Solubility in Water at 20° C. [2]: 31 mg/mL (≈ 360 mM)

methane produced on conversion [1, 4]: 0.56 moles/mole of oxalic acid dihydrate
SMILES: O=C(O)C(=O)O [oxalic acid dihydrate]
carbon dioxide produced on conversion [1, 4]: 1.25 moles CO2/mole of oxalic acid dehydrate
